According to ChEMBL document CHEMBL5143685, “Valorisation of the diterpene podocarpic acid - Antibiotic and antibiotic enhancing activities of polyamine conjugates” (Bioorg Med Chem, 2022):
Converted amounts (≈) assume the structure as drawn.

Legend:
Escherichia coli = assay: Antibacterial activity against Escherichia coli ATCC 25922 assessed as inhibition of bacterial growth measured after 18 hrs by resazurin dye based analysis; type: functional
Acinetobacter baumannii = assay: Antibacterial activity against Acinetobacter baumannii ATCC 19606 assessed as inhibition of bacterial growth measured after 18 hrs by resazurin dye based analysis; type: functional
Staphylococcus aureus = assay: Antibacterial activity against methicillin-resistant Staphylococcus aureus ATCC 43300 assessed as inhibition of bacterial growth measured after 18 hrs by resazurin dye based analysis; type: functional
Klebsiella pneumoniae = assay: Antibacterial activity against Klebsiella pneumoniae ATCC 700603 assessed as inhibition of bacterial growth measured after 18 hrs by resazurin dye based analysis; type: functional
Cryptococcus neoformans = assay: Antifungal activity against Cryptococcus neoformans ATCC 208821 assessed as fungal growth inhibition incubated for 36 hrs by resazurin dye based analysis; type: functional
Candida albicans = assay: Antifungal activity against Candida albicans ATCC 90028 assessed as fungal growth inhibition incubated for 36 hrs by resazurin dye based analysis; type: functional
Pseudomonas aeruginosa = assay: Antibacterial activity against Pseudomonas aeruginosa ATCC 27853 assessed as inhibition of bacterial growth measured after 18 hrs by resazurin dye based analysis; type: functional
[1] = Cytotoxicity against HEK293 cells assessed as cell growth inhibition measured after 20 hrs by resazurin dye based assay; type: toxicity; details: human

Compound | MIC (Escherichia coli) [µM] | MIC (Acinetobacter baumannii) [µM] | MIC (Staphylococcus aureus) [µM] | MIC (Klebsiella pneumoniae) [µM] | MIC (Cryptococcus neoformans) [µM] | MIC (Candida albicans) [µM] | MIC (Pseudomonas aeruginosa) [µM] | IC50 at 20 h [1] [µM]
C[C@]1(C(=O)O)CCC[C@]2(C)c3cc(OC(=O)NCCCNCCCCN)ccc3CC[C@@H]12 | > 47.5 | > 47.5 | > 47.5 | > 47.5 | > 47.5 | > 47.5 | > 47.5 | –
C[C@]1(C(=O)NCCCNCCCCCCN)CCC[C@]2(C)c3cc(O)ccc3CC[C@@H]12.O=C(O)C(F)(F)F.O=C(O)C(F)(F)F | > 48.6 | > 48.6 | > 48.6 | > 48.6 | > 48.6 | > 48.6 | > 48.6 | > 48.6
COC(=O)[C@@]1(C)CCC[C@]2(C)c3cc(OC(=O)CCCNCCCCCCNCCCNC(=O)Oc4ccc5c(c4)[C@@]4(C)CCC[C@](C)(C(=O)OC)[C@@H]4CC5)ccc3CC[C@@H]12.O=C(O)C(F)(F)F.O=C(O)C(F)(F)F | 14.7 | > 29.4 | ≤ 0.23 | > 29.4 | 0.46 | ≤ 0.23 | > 29.4 | 4.68
C[C@@]12CCC[C@](C)(C(=O)O)[C@H]1CCc1ccc(OC(=O)CCCNCCCCNCCCNC(=O)Oc3ccc4c(c3)[C@@]3(C)CCC[C@](C)(C(=O)O)[C@@H]3CC4)cc12.O=C(O)C(F)(F)F.O=C(O)C(F)(F)F | > 31 | > 31 | > 31 | > 31 | 7.76 | 7.76 | > 31 | > 31
C[C@]1(C(=O)O)CCC[C@]2(C)c3cc(OC(=O)NCCCNCCCCCCCCN)ccc3CC[C@@H]12.O=C(O)C(F)(F)F.O=C(O)C(F)(F)F | > 43.8 | > 43.8 | > 43.8 | > 43.8 | > 43.8 | > 43.8 | > 43.8 | > 43.8
C[C@]1(C(=O)O)CCC[C@]2(C)c3cc(OC(=O)CCCNCCCCCCCCCCCCNCCCNC(=O)Oc4ccc5c(c4)[C@@]4(C)CCC[C@](C)(C(=O)O)[C@@H]4CC5)ccc3CC[C@@H]12.O=C(O)C(F)(F)F.O=C(O)C(F)(F)F | > 28 | > 28 | 14 | > 28 | 3.5 | > 28 | > 28 | > 28
C[C@]1(C(=O)NCCCNCCCCCCCCCCNCCCNC(=O)[C@@]2(C)CCC[C@]3(C)c4cc(O)ccc4CC[C@@H]23)CCC[C@]2(C)c3cc(O)ccc3CC[C@@H]12.O=C(O)C(F)(F)F.O=C(O)C(F)(F)F | > 31.1 | > 32.1 | ≤ 0.24 | > 31.1 | 3.89 | > 32.1 | > 31.1 | 0.87
C[C@]1(C(=O)O)CCC[C@]2(C)c3cc(O)ccc3CC[C@@H]12 [PODOCARIC ACID] | > 117 | > 117 | > 117 | > 117 | > 117 | > 117 | > 117 | –
CCCCCNC(=O)[C@@]1(C)CCC[C@]2(C)c3cc(OC(=O)CCCNCCCCCCCCCCNCCCNC(=O)Oc4ccc5c(c4)[C@@]4(C)CCC[C@](C)(C(=O)NCCCCC)[C@@H]4CC5)ccc3CC[C@@H]12.O=C(O)C(F)(F)F.O=C(O)C(F)(F)F | > 25.5 | > 25.5 | ≤ 0.2 | > 25.5 | 3.19 | ≤ 0.2 | > 25.5 | > 25.5
OC(Cn1cncn1)(Cn1cncn1)c1ccc(F)cc1F [FLUCONAZOLE] | – | – | – | – | 26 (≈ 7.96 µg/mL) | 0.4 (≈ 0.123 µg/mL) | – | –
C[C@]1(C(=O)O)CCC[C@]2(C)c3cc(OC(=O)NCCCNCCCCCCCCCCN)ccc3CC[C@@H]12 | > 42.2 | > 42.2 | > 42.2 | > 42.2 | > 42.2 | > 42.2 | > 42.2 | –
CC[C@H]1OC(=O)[C@H](C)[C@@H](O[C@H]2C[C@@](C)(OC)[C@@H](O)[C@H](C)O2)[C@H](C)[C@@H](O[C@@H]2O[C@H](C)C[C@H](N(C)C)[C@H]2O)[C@](C)(O)C[C@@H](C)C(=O)[C@H](C)[C@@H](O)[C@]1(C)O [ERYTHROMYCIN] | 174 (≈ 128 µg/mL) | – | – | – | – | – | – | –
CN[C@H](CC(C)C)C(=O)N[C@H]1C(=O)N[C@@H](CC(N)=O)C(=O)N[C@H]2C(=O)N[C@H]3C(=O)N[C@H](C(=O)N[C@H](C(=O)O)c4cc(O)cc(O)c4-c4cc3ccc4O)[C@H](O)c3ccc(c(Cl)c3)Oc3cc2cc(c3O[C@@H]2O[C@H](CO)[C@@H](O)[C@H](O)[C@H]2O[C@H]2C[C@](C)(N)[C@H](O)[C@H](C)O2)Oc2ccc(cc2Cl)[C@H]1O [VANCOMYCIN] | – | – | 0.7 (≈ 1.01 µg/mL) | – | – | – | – | –
C[C@]1(C(=O)NCCCNCCCCN)CCC[C@]2(C)c3cc(O)ccc3CC[C@@H]12 | > 50.8 | > 50.8 | > 50.8 | > 50.8 | > 50.8 | > 50.8 | > 50.8 | –
